Results from patent US6417199B1, “3-benzyl-benzothiophenes” (Eli Lilly and Company, priority 1995, dated 2002).

Columns and labels:
Serum Cholesterol = test: Serum cholesterol in ovariectomized rat post-menopausal model; type: in vivo, Sprague Dawley rats; details: ovariectomized rats, dosed orally daily for 4 days; for ED50: Rattus norvegicus, po, 96 h
Description: In the examples illustrating the methods, a post-menopausal model was used in which effects of different treatments upon circulating lipids were determined.
Seventy-five day old female Sprague Dawley rats (weight range of 200 to 225 g) are obtained from Charles River Laboratories (Portage, Mich.). The animals are either bilaterally ovariectomized (OVX) or exposed to a Sham surgical procedure at Charles River Laboratories, and then shipped after one week. Upon arrival, they are housed in metal hanging cages in groups of 3 or 4 per cage and had ad libitum access to food (calcium content approximately 0.5%) and water for one week. Room temperature is maintained at 22.2°±1.7° C. with a minimum relative humidity of 40%. The photoperiod in the room was 12 hours light and 12 hours dark.
Dosing Reaimen Tissue Collection. After a one week acclimation period (therefore, two weeks post-OVX) daily dosing with test compound is initiated. 17α-ethynyl estradiol or the test compound is given orally, unless otherwise stated, as a suspension in 1% carboxymethylcellulose or dissolved in 20% cyclodextrin. Animals are dosed daily for 4 days. Following the dosing regimen, animals are weighed and anesthetized with a ketamine: xylazine (2:1, V:V) mixture and a blood sample is collected by cardiac puncture. The animals are then sacrificed by asphyxiation with CO2, the uterus is removed through a midline incision, and a wet uterine weight is determined.
Cholesterol Analysis. Blood samples are allowed to clot at room temperature for 2 hours, and serum is obtained following centrifugation for 10 minutes at 3000 rpm. Serum cholesterol is determined using a Boehringer Mannheim Diagnostics high performance cholesterol assay. Briefly the cholesterol is oxidized to cholest-4-en-3-one and hydrogen peroxide. The hydrogen peroxide is then reacted with phenol and 4-aminophenazone in the presence of peroxidase to produce a p-quinone imine dye, which is read spectrophotemetrically at 500 nm. Cholesterol concentration is then calculated against a standard curve. The entire assay is automated using a Biomek Automated Workstation.
Data presented in Table 1 below show results when rats were treated with certain compounds of the present invention. The compounds of the present invention generally reduce serum cholesterol compared to the ovariectomized control animals.

[1] = test system: MCF-7 breast adenocarcinoma cells; test: MCF-7 Proliferation Assay; type: cell-based; details: Homo sapiens, MCF7; MCF-7 cells, 48 hours with drug, tritiated thymidine incorporation; read-out: ED50 (the source's name)
Description: MCF-7 breast adenocarcinoma cells (ATCC HTB 22) were maintained in MEM (minimal essential medium, phenol red-free, Sigma, St. Louis, Mo.) supplimented with 10% fetal bovine serum (FBS) (V/V), L-glutamine (2 mM), sodium pyruvate (1 mM), HEPES {(N-[2-hydroxyethyl]piperazine-N′-[2-ethanesulfonic acid]10 mM}, non-essential amino acids and bovine insulin (1 ug/mL) (maintenance medium). Ten days prior to assay, MCF-7 cells were switched to maintenance medium supplemented with 10% dextran coated charcoal stripped fetal bovine serum (DCC-FBS) assay medium) in place of 10% FBS to deplete internal stores of steroids. MCF-7 cells were removed from maintenance flasks using cell dissociation medium (Ca++/Mg++ free HBSS (phenol red-free) supplemented with 10 mM HEPES and 2 mM EDTA). Cells were say medium and adjusted to 80,000 cells/mL. Approximately 100 μL (8,000 cells) were added to flat-bottom microculture wells (Costar 3596) and incubated at 37° C. in a 5% CO2 humidified incubator for 48 hours to allow for cell adherence and equilbration after transfer. Serial dilutions of drugs or DSMO as a diluent control were prepared in assay medium and 50 μL transferred to triplicate microcultures followed by 50 μL assay medium for a final volume of 200 μL. After an additional 48 hours at 37° C. in a 5% CO2 humidified incubator, microcultures were pulsed with tritiated thymidine (1 uCi/well) for 4 hours. Cultures were terminated by freezing at −70° C. for 24 hours followed by thawing and harvesting of microcultures using a Skatron Semiautomatic Cell Harvester. Samples were counted by liquid scintillation using a Wallac BetaPlace β counter. Results in Table 2 below show the ED50 for certain compounds of the present invention.

Row | SMILES | EC50 [1] | ED50 (Serum Cholesterol) | Serum Cholesterol ED50 (mg/kg) (Serum Cholesterol)
1 | COC(c1ccc(OCCN2CCCCC2)cc1)c1c(-c2ccc(O)cc2)sc2cc(O)ccc12 (centres unmarked) [Example 1] | 0.8 nM | 3.5 mg/kg | 
2 | CCOC(c1ccc(OCCN2CCCCC2)cc1)c1c(-c2ccc(O)cc2)sc2cc(O)ccc12 (centres unmarked) [Example 2] | 3 nM | 10 mg/kg | 
3 | CC(C)OC(c1ccc(OCCN2CCCCC2)cc1)c1c(-c2ccc(O)cc2)sc2cc(O)ccc12 (centres unmarked) [Example 4] | 10 nM | 4.1 mg/kg | 
4 | CCCCOC(c1ccc(OCCN2CCCCC2)cc1)c1c(-c2ccc(O)cc2)sc2cc(O)ccc12 (centres unmarked) [Example 5] | 1.5 nM | 2.5 mg/kg | 
5 | N#CCCOC(c1ccc(OCCN2CCCCC2)cc1)c1c(-c2ccc(O)cc2)sc2cc(O)ccc12 (centres unmarked) [Example 7] | 7 nM | 2.4 mg/kg | 
6 | OCCOC(c1ccc(OCCN2CCCCC2)cc1)c1c(-c2ccc(O)cc2)sc2cc(O)ccc12 (centres unmarked) [Example 8] | 20 nM | 2.9 mg/kg | 
7 | CSC(c1ccc(OCCN2CCCCC2)cc1)c1c(-c2ccc(O)cc2)sc2cc(O)ccc12 (centres unmarked) [Example 9] | 3 nM | 5.1 mg/kg | 
8 | CCSC(c1ccc(OCCN2CCCCC2)cc1)c1c(-c2ccc(O)cc2)sc2cc(O)ccc12 (centres unmarked) [Example 10] | 1.2 nM | 1.7 mg/kg | 
9 | CCN(CC)C(c1ccc(OCCN2CCCCC2)cc1)c1c(-c2ccc(O)cc2)sc2cc(O)ccc12 (centres unmarked) [Example 15] | 7 nM | 3.8 mg/kg | 
10 | Oc1ccc(-c2sc3cc(O)ccc3c2C(c2ccc(OCCN3CCCCC3)cc2)N2CCCC2)cc1 (centres unmarked) [Example 16] | 15 nM | 10 mg/kg | 
11 | Oc1ccc(-c2sc3cc(O)ccc3c2C(c2ccc(OCCN3CCCCC3)cc2)N2CCCCCC2)cc1 (centres unmarked) [Example 17] | 30 nM | 10 mg/kg | 
12 | OCCNC(c1ccc(OCCN2CCCCC2)cc1)c1c(-c2ccc(O)cc2)sc2cc(O)ccc12 (centres unmarked) [Example 18] | 90 nM |  | N.A. at 10.0;

The remaining molecules from weak to strong by EC50 [1], led by results:

Row | EC50 [1] | SMILES | ED50 (Serum Cholesterol) | Serum Cholesterol ED50 (mg/kg) (Serum Cholesterol)
13 | 20 nM | CN(C)C(c1ccc(OCCN2CCCCC2)cc1)c1c(-c2ccc(O)cc2)sc2cc(O)ccc12 (centres unmarked) [Example 11] | 0.1 mg/kg | 
14 | 7 nM | Oc1ccc(-c2sc3cc(O)ccc3c2C(NN2CCCCC2)c2ccc(OCCN3CCCCC3)cc2)cc1 (centres unmarked) [Example 20] | 10 mg/kg | 
15 | 6 nM | NC(c1ccc(OCCN2CCCCC2)cc1)c1c(-c2ccc(O)cc2)sc2cc(O)ccc12 (centres unmarked) [Example 14] | 5.7 mg/kg | 
16 | 4 nM | CNC(c1ccc(OCCN2CCCCC2)cc1)c1c(-c2ccc(O)cc2)sc2cc(O)ccc12 (centres unmarked) [Example 12] | 0.8 mg/kg | 
17 | 2 nM | CCCOC(c1ccc(OCCN2CCCCC2)cc1)c1c(-c2ccc(O)cc2)sc2cc(O)ccc12 (centres unmarked) [Example 3] | 10 mg/kg | 
18 | 0.8 nM | N#CC(c1ccc(OCCN2CCCCC2)cc1)c1c(-c2ccc(O)cc2)sc2cc(O)ccc12 (centres unmarked) [Example 13] | 0.8 mg/kg | 
19 | 0.5 nM | Oc1ccc(C2Sc3cc(O)ccc3C2C(OCc2ccccc2)c2ccc(OCCN3CCCCC3)cc2)cc1 (centres unmarked) [Example 6] | 10 mg/kg | 
